Here are results for 22 molecules from patent US10030016B2 (Sunesis Pharmaceuticals, Inc., priority 2009, dated 2018).

Structures can show the parent of a compound that is named as a salt. Where two headings read alike, the source gives them in different places. Bounds are passed on as bounds.

The test system of test [1] is phospho-akt (Thr308) in PC-3 cells. Nature of the test: Inhibition of phospho-akt (Thr308) in PC-3 cells, MSD phospho-akt 308 ELISA kit. As to conditions: 2 hours, no serum, read-out: EC50. The test is classed as cell-based. Summed up: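 Serum-free 2 h compound exposure of overnight-seeded PC-3 cells, threefold dilution series; lysates analysed on blocked MSD plates (3% BSA) for Thr308-phosphorylated Akt, normalised between DMSO and 5 μM wortmannin wells.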
A general note: In an ELISA, binding on a coated surface is turned into a signal by an enzyme label.

The target of a further test is PDK1 (Homo sapiens (Human), UniProt O15530). Nature of the test: PDK1 kinase assay (coupled PDK1/AKT/FAM-crosstide assay, IMAP fluorescence polarization). The test is classed as biochemical. How it is done:
A PDK1 kinase assay was performed as follows. PDK1 (amino acids 51-359) and AKT2 (amino acids 140-467 fused to PIFtide, amino acids […]) were expressed as N-terminally tagged GST fusion proteins in insect cells and purified to homogeneity. Enzyme activity was determined in a coupled PDK1/AKT/FAM-crosstide assay and phosphorylation of FAM-crosstide was determined by standard IMAP protocol (Molecular Devices). For inhibition studies, compounds were titrated 4-fold in DMSO and diluted 40-fold into assay buffer (10 mM Tris HCl pH7.2; 10 mM MgCl2; 0.01% Triton X-100; 1 mM DTT) containing PDK1, AKT2, and FAM-crosstide (final concentrations: 0.75 nM PDK1, 10 nM unphosphorylated AKT2, and 100 nM crosstide substrate). The kinase reaction was initiated by adding ATP to a final concentration of 40 μM of PDK1 and incubated at 25° C. for 30 min. To detect assay product, the kinase reaction was combined with Progressive Binding Solution (1:600 Progressive Binding Reagent, 50% Buffer A, 50% Buffer B, Molecular Devices) in a 1:3 ratio. The mixture was incubated for 2 hours at 25° C. and the plate was scanned on an Analyst AD with excitation at 485 nm and emission at 530 nm. The fluorescence polarization value “P” is defined by the equation below. The value “mP” is generated by multiplying the P value for each reaction well by a factor of 1000. The value “ΔmP” for each well is the mP value for that well minus the mP value for the average negative control. P=(Fpar−Fperp)/(Fpar+Fperp) Eq.:
Where “par” is fluorescence intensity parallel to the excitation plane; and “perp” is fluorescence intensity perpendicular to the excitation plane. ΔmP values were plotted as a function of compound concentration and the data were analyzed with a 4-parameter fit using GraphPad Prism software.
(In fluorescence polarisation assays a small probe gives low polarisation when free and higher when bound to something large.)

Setting [2] is: Homo sapiens, inhibition of P308 Akt in PC-3 cells using MSD.
Setting [3] is: Homo sapiens, inhibition of P308 Akt in PC-3 cells, MSD.
The mark [4] stands for this setting: inhibition of phospo-PDK1 in vitro.

Sequence of PDK1 (O15530 51-359): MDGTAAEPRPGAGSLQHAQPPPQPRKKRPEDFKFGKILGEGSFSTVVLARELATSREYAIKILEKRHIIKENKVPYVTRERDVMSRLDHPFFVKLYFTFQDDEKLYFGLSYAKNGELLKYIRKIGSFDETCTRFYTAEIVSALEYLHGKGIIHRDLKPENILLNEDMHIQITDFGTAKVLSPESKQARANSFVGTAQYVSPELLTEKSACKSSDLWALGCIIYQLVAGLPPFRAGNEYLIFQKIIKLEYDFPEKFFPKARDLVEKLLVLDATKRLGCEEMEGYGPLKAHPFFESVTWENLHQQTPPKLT

Take `C[C@H](NC(=O)c1cc(C#N)cnc1NCc1ccc(-c2ccc(NCCN(C)C)nc2)cc1)c1ccc(F)cc1` [Example 224, 5-Cyano-2-{4-[6-(2-dimethylamino-ethylamino)-pyridin-3-yl]-benzylamino}-N-[(S)-1-(4-fluoro-phenyl)-ethyl]-nicotinamide]: in test [1] (setting [2]), the EC50 – broadly, the concentration at which the effect is half-maximal – is above 10000 nM. The IC50 (as a rule, the midpoint of a concentration-inhibition curve) against PDK1 (inhibition of PDK1 in vitro) is above 5000 nM.

As for `C[C@H](NC(=O)c1cc(C#N)cnc1NCc1ccc(-c2c[nH]c3ncnc(N)c23)cc1)c1ccc(F)cc1` [Example 41, 2-[4-(4-Amino-7H-pyrrolo[2,3-d]pyrimidin-5-yl)-benzylamino]-5-cyano-N-[(S)-1-(4-fluoro-phenyl)-ethyl]-nicotinamide], the EC50 in test [1] (setting [2]) was below 1000 nM. Also, the IC50 at PDK1 (inhibition of PDK1 in vitro) was below 100 nM.

Take `Cc1ccc(Nc2ncccc2C(=O)NCc2ccc(F)c(F)c2)cc1-c1ccc2c(c1)CNC2=O` [Example 17.2]: in test [1] (setting [3]), the EC50 is above 10000 nM. Moreover, the IC50 against PDK1 (setting [4]) was above 5000 nM.

In the case of `C[C@H](NC(=O)c1nc(C#N)cnc1NCc1ccc(-c2ccc3ncnc(N)c3c2)s1)c1ccc(F)c(F)c1` [Ex. 10.9, 3-({[5-(4-aminoquinazolin-6-yl)thiophen-2-yl]methyl}amino)-6-cyano-N-[(1S)-1-(3,4-difluorophenyl)ethyl] pyrazine-2-carboxamide], the concentration giving a half-maximal response (EC50) in test [1] (setting [3]) is below 1000 nM. At PDK1 (setting [4]), this molecule displayed an IC50 of 100 to 1000 nM.

For the molecule `N#Cc1cnc(NCc2ccc(-c3cnc4[nH]ncc4c3)cc2)c(C(=O)NCc2ccc(F)cc2)c1` [Example 397, 5-Cyano-N-(4-fluoro-benzyl)-2-[4-(1H-pyrazolo[3,4-b]pyridin-5-yl)-benzylamino]-nicotinamide], the EC50 in test [1] (setting [2]) was below 1000 nM. Also, the IC50 at PDK1 (inhibition of PDK1 in vitro) is below 100 nM.

In the case of `C[C@H](NC(=O)c1cc(C#N)cnc1NCc1ccc(-c2cnc(N)c(N)c2)cc1)c1ccc(F)cc1` [Example 102, (S)-5-cyano-2-(4-(5,6-diaminopyridin-3-yl)benzylamino)-N-(1-(4-fluorophenyl)ethyl) nicotinamide], the EC50 in test [1] (setting [2]) lay within 1000 to 10000 nM. On PDK1 (inhibition of PDK1 in vitro), the IC50 was below 100 nM.

Take `O=C(NCc1ccc(F)c(F)c1)c1cccnc1NCc1csc(-c2c[nH]c3ncccc23)n1` [Ex. 6.12, N-(3,4-difluorobenzyl)-2-({[2-(1H-pyrrolo[2,3-b]pyridin-3-yl)-1,3-thiazol-4-yl]-methyl}amino) pyridine-3-carboxamide]: the EC50 in test [1] (setting [3]) was below 1000 nM. At PDK1 (setting [4]), this molecule yielded an IC50 below 100 nM.

For `C[C@H](NC(=O)c1nc(C#N)cnc1NCc1ccc(-c2cnc(N)c(NCC(O)CO)n2)cc1)c1ccc(F)c(F)c1` (stereo partly drawn) [Example 244, 3-{4-[5-Amino-6-(2,3-dihydroxy-propylamino)-pyrazin-2-yl]-benzylamino}-6-cyano-pyrazine-2-carboxylic acid [(S)-1-(3,4-difluoro-phenyl)-ethyl]-amide], the EC50 in test [1] (setting [2]) was below 1000 nM. On PDK1 (inhibition of PDK1 in vitro), this molecule yielded an IC50 below 100 nM.

Regarding `Nc1n[nH]c2ncc(-c3ccc(CNc4ncc(C(F)(F)F)cc4C(=O)NCCC4CC4)cc3)cc12` [Example 269, 2-(4-(3-amino-1H-pyrazolo [3,4-b]pyridin-5-yl)benzylamino)-N-(2-cyclopropylethyl)-5-(trifluoromethyl) nicotinamide], the EC50 in test [1] (setting [2]) fell in the range of 1000 to 10000 nM. On PDK1 (inhibition of PDK1 in vitro), this molecule came in with an IC50 below 100 nM.

`O=C(NCc1ccc(C(F)(F)F)cc1)c1cccnc1NCc1cccc(-c2c[nH]c3ncccc23)c1` [Example 1.7, 2-(3-(1H-pyrrolo[2,3-b]pyridin-3-yl)benzylamino)-N-(4-(trifluoromethyl)benzyl) nicotinamide]: the EC50 in test [1] (setting [3]) was above 10000 nM. At PDK1 (setting [4]), this molecule had an IC50 of 1000 to 5000 nM.

For the molecule `Nc1ncnc2ccc(-c3ccc(CNc4ncccc4C(=O)NCc4cccc(F)c4)s3)cc12` [Example 3.9, 2-({[5-(4-aminoquinazolin-6-yl)thiophen-2-yl]methyl}amino)-N-(3-fluorobenzyl)pyridine-3-carboxamide (TFA salt)], the EC50 in test [1] (setting [3]) is below 1000 nM. The molecule also had a half-maximal inhibitory concentration (IC50) against PDK1 (setting [4]) below 100 nM.

For the molecule `C[C@H](NC(=O)c1nc(C#N)cnc1NCc1ccc(-c2cnc3[nH]nc(N(C)C)c3c2)cc1)c1ccc(F)c(F)c1` [Example 62, (S)-6-cyano-N-(1-(3,4-difluorophenyl)ethyl)-3-(4-(3-(dimethylamino)-1H-pyrazolo[3,4-b]pyridin-5-yl)benzylamino)pyrazine-2-carboxamide], the EC50 in test [1] (setting [2]) was below 1000 nM. Also, the IC50 on PDK1 (inhibition of PDK1 in vitro) was below 100 nM.

In the case of `C[C@H](NC(=O)c1nc(C#N)cnc1NCc1ccc(-c2cnc(N)c(NCCN)n2)cc1)c1ccc(F)c(F)c1` [Example 195, 3-{4-[5-Amino-6-(2-amino-ethylamino)-pyrazin-2-yl]-benzylamino}-6-cyano-pyrazine-2-carboxylic acid [(S)-1-(3,4-difluoro-phenyl)-ethyl]-amide], the EC50 in test [1] (setting [2]) was below 1000 nM. Besides, the IC50 at PDK1 (inhibition of PDK1 in vitro) is below 100 nM.

With `C[C@H](NC(=O)c1nc(C#N)cnc1N[C@H](C)c1ccc(-c2cn(C)c3ncnc(N)c23)cc1)c1ccc(F)c(F)c1` [Example 399, 3-((R)-1-(4-(4-amino-7-methyl-7H-pyrrolo[2,3-d]pyrimidin-5-yl)phenyl)ethylamino)-6-cyano-N-((S)-1-(3,4-difluorophenyl)ethyl)pyrazine-2-carboxamide], the EC50 in test [1] (setting [2]) was below 1000 nM. This molecule showed an IC50 on PDK1 (inhibition of PDK1 in vitro) below 100 nM.

As for `CC(C)Oc1cc(CNc2ncccc2C(=O)NCc2ccc(F)c(F)c2)cc(-c2c[nH]c3ncc(-c4ccn[nH]4)cc23)c1` [Example 53, 2-(3-(5-(1H-pyrazol-5-yl)-1H-pyrrolo[2,3-b]pyridin-3-yl)-5-isopropoxybenzylamino)-N-(3,4-difluorobenzyl)nicotinamide], in test [1] (setting [2]), the EC50 was in the range of 1000 to 10000 nM. For the same molecule, at PDK1 (inhibition of PDK1 in vitro), the IC50 was below 100 nM.

As for `N#Cc1cnc(NCc2ccc(-c3ccc(N)nc3)cc2)c(C(=O)NCc2ccc(F)c(F)c2)c1` [Example 368, 2-(4-(6-aminopyridin-3-yl)benzylamino)-5-cyano-N-(3,4-difluorobenzyl) nicotinamide], in test [1] (setting [2]), the EC50 is below 1000 nM. At PDK1 (inhibition of PDK1 in vitro), this molecule had an IC50 below 100 nM.

On to `C[C@H](NC(=O)c1nc(C#N)cnc1N[C@H](C)c1ccc(-c2cnc3[nH]nc(N)c3c2)cc1)c1ccc(F)c(F)c1` [Example 42, 3-((R)-1-(4-(3-amino-1H-pyrazolo[3,4-b]pyridin-5-yl)phenyl)ethylamino)-6-cyano-N—((S)-1-(3,4-difluorophenyl)ethyl)pyrazine-2-carboxamide], for which, in test [1] (setting [2]), the EC50 is below 1000 nM. On PDK1 (inhibition of PDK1 in vitro), this molecule had an IC50 below 100 nM.

On to `C[C@H](NC(=O)c1cc(C#N)cnc1NCc1ccc(-c2cnc(N)c(CCCCO)n2)cc1)c1ccc(F)cc1` [Example 90, 2-{4-[5-Amino-6-(4-hydroxy-butyl)-pyrazin-2-yl]-benzyl-amino}-5-cyano-N-[(S)-1-(4-fluoro-phenyl)-ethyl]-nicotinamide], for which the EC50 in test [1] (setting [2]) is below 1000 nM. This molecule also registered a half-maximal inhibitory concentration (IC50) at PDK1 (inhibition of PDK1 in vitro) below 100 nM.

For `C[C@H](NC(=O)c1cc(C#N)cnc1NCc1ccc(-c2cnc(N)c(C(=O)NCCO)n2)cc1)c1ccc(F)cc1` [Example 215, (S)-3-amino-6-(4-((5-cyano-3-(1-(4-fluorophenyl)ethylcarbamoyl)pyridin-2-ylamino)methyl)phenyl)-N-(2-hydroxyethyl) pyrazine-2-carboxamide], in test [1] (setting [2]), the 50% effective concentration (EC50) was below 1000 nM. This molecule also gave a concentration for half-maximal inhibition (IC50) against PDK1 (inhibition of PDK1 in vitro) below 100 nM.

For the molecule `C[C@H](NC(=O)c1cccnc1NCc1ccc(-c2ccc3ncnc(N)c3c2)s1)c1cncc(F)c1` [Example 3.59, (S)-2-(((5-(4-aminoquinazolin-6-yl)thiophen-2-yl)methyl)amino)-N-(1-(5-(fluoropyridin-3-yl)ethyl)nicotinamide (TFA salt)], in test [1] (setting [3]), the EC50 fell in the range of 1000 to 10000 nM. Moreover, the IC50 against PDK1 (setting [4]) is below 100 nM.

Regarding `C[C@H](NC(=O)c1cc(C#N)cnc1NCc1ccc(-c2cnc(N)c(C(=O)NCCCO)n2)cc1)c1ccc(F)cc1` [Example 209, (S)-3-amino-6-(4-((5-cyano-3-(1-(4-fluorophenyl)ethylcarbamoyl)pyridin-2-ylamino)methyl)phenyl)-N-(3-hydroxypropyl) pyrazine-2-carboxamide], the EC50 in test [1] (inhibition of P308 Akt in PC-3 cells using MSD) is below 1000 nM. In addition, at PDK1 (inhibition of PDK1 in vitro), the IC50 was below 100 nM.

With `C[C@H](NC(=O)c1cc(C#N)cnc1NCc1ccc(-c2cnc(N)c(C(=O)N3CCNCC3)n2)cc1)c1ccc(F)cc1` [Example 221, 2-{4-[5-Amino-6-(piperazine-1-carbonyl)-pyrazin-2-yl]-benzylamino}-5-cyano-N-[(S)-1-(4-fluoro-phenyl)-ethyl]-nicotinamide], the EC50 in test [1] (setting [2]) fell in the range of 1000 to 10000 nM. The molecule also registered an IC50 at PDK1 (inhibition of PDK1 in vitro) below 100 nM.
